Measured values from patent US20210290629A1 (priority 2016, published 2021).
Like-named read-outs stand apart in the source and are kept apart here.

How the values were obtained:
[1] = tested on: GFP-expressing Mycobacterium tuberculosis H37Rv; format: cell-based
[2] = tested on: Mycobacterium tuberculosis (Mtb H37Rv) in human monocyte-derived macrophages (hMDM); format: cell-based; conditions: seven days; for intracellular growth of Mycobacterium tuberculosis in primary human macrophages (CFU): 300 nM
[3] = tested on: human monocyte-derived macrophages (hMDM); experiment: Cell viability analysis by impedance measurements (xCELLigence); format: cell-based; conditions: FIG. 5 and 6, range of tested concentrations (30, 100 and 300 nM), 120 h
Method: 3) Cell Viability Analysis by Impedance Measurements
Real-time viability assays (5×10^4 human monocyte derived macrophages/well) were performed with the xCELLigence System (Acea Biosciences Inc.) (Otero-Gonzalez L et al., Environ Sci Technol. 2012; 46(18):10271-8). Impedance measurement was carried out using plates with incorporated sensor array (E-Plate) and the Real-Time Cell Analyzer (RTCA) SP instrument for 120 h. After equilibration of the cells in RPMI 1640 with 10% FCS and 4 mM L-glutamine for 3 h, cells incubated in the absence (medium) or the presence of the ACC2 inhibitor (30, 100 and 300 nM) and staurosporine (1 μg/ml). Data obtained was analyzed using the RTCA Software 2.0 (Acea Biosciences Inc.) see FIGS. 5 and 6.

[4] = molecular target: M. tuberculosis AccD5 (Mycobacterium tuberculosis, UniProt P9WQH7); conditions: literature, Lin T-W. et al., PNAS 2006; cited from earlier work
Chain of M. tuberculosis AccD5 (P9WQH7 whole entry): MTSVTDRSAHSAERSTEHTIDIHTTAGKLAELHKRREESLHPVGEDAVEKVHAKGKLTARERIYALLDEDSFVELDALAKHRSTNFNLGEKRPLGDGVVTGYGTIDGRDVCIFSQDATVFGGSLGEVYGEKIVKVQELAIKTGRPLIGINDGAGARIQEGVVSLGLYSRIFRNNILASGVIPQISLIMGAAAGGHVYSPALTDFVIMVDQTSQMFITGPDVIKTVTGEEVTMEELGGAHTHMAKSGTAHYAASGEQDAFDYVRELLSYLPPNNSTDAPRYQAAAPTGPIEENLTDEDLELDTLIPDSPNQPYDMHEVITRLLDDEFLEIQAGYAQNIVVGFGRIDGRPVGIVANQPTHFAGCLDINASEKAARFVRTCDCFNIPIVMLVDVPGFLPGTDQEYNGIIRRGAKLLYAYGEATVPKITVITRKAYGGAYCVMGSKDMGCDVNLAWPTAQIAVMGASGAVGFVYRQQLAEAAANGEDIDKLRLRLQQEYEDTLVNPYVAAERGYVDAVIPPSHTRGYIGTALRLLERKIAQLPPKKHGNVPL
Chain of M. tuberculosis AccD5 (P9WPQ3 whole entry, further chain): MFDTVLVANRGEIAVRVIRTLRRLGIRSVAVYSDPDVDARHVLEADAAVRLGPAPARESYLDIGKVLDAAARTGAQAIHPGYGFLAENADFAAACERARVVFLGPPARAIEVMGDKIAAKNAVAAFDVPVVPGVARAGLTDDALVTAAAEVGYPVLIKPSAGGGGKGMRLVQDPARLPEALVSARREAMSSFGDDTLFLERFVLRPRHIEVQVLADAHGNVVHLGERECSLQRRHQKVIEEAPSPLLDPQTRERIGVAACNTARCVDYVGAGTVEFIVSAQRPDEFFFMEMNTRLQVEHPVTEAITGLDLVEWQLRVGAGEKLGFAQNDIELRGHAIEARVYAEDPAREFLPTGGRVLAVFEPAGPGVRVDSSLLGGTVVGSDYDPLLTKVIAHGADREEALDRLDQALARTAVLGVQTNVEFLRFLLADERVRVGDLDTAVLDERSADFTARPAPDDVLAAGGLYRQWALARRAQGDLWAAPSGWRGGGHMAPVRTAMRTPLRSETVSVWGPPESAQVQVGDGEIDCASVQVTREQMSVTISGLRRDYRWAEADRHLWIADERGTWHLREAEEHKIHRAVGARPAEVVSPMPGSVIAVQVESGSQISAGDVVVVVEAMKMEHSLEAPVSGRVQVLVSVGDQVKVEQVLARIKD

[5] = tested on: M, tuberculosis; conditions: literature, Singhal A. et al., Science Translational Medicine 2014; cited from earlier work
[6] = FIG. 8 and 9, indicated concentrations, day 7

O=C(c1c2ccccc2cc2ccccc12)N1CCC(N2CCC[C@@H](C(=O)N3CCOCC3)C2)CC1 [CP640.186]
growth of Mycobacterium tuberculosis (Mtb) in liquid culture (fluorescence signal intensity at 528 nm) [1, 6]: does not affect growth | intracellular growth of Mycobacterium tuberculosis in primary human macrophages (CFU) ([2]; FIG. 4, 500 nM, one out of two experiments): dose-dependently reduces intracellular growth | viability of primary human macrophages (cell index, impedance) [3]: does not affect the viability

CC(Oc1ccc(Oc2ccc(Cl)cc2Cl)cc1)C(=O)O (stereo not drawn) [Diclofop]
inhibition of M. tuberculosis AccD5 [4]: cannot be inhibited

CN(C)C(=N)N=C(N)N [Metformin]
intracellular growth of M. tuberculosis [5]: reducing the intracellular growth

CC(=O)NC(C)c1cnc(-c2cnc(Oc3ccc(OC(C)C)cc3)s2)s1 (stereo not drawn) [ab142090, N-(1-(2′-(4-isopropoxyphenoxy)-2,5′-bithiazol5-yl)ethyl)Acetamide]
growth of Mycobacterium tuberculosis (Mtb) in liquid culture (fluorescence signal intensity at 528 nm) ([1]; FIG. 1, indicated concentrations and time points, two independent experiments): does not affect the growth | intracellular growth of Mycobacterium tuberculosis in primary human macrophages (CFU) ([2]; FIG. 2, 100 nM, three donors): dose-dependently reduces intracellular growth | intracellular growth of Mycobacterium tuberculosis in primary human macrophages (CFU), combination with antibiotics ([2]; FIG. 3, 100 nM or 300 nM in combination with rifampicin or isoniazid in suboptimal concentrations, three donors): reduces intracellular growth | viability of primary human macrophages (cell index, impedance) [3]: does not affect the viability

COc1cc(C(=O)N2CCC3(CC2)CC(=O)c2cc(-c4cncc(C(=O)O)c4)ccc2O3)cc2c1c(C)cn2C1CC1 [MK-4074]
growth of Mycobacterium tuberculosis (Mtb) in liquid culture (fluorescence signal intensity at 528 nm) [1, 6]: do not affect growth

COc1ccccc1[C@H](Cn1c(=O)n(C(C)(C)C(N)=O)c(=O)c2c(C)c(-c3ncco3)sc21)OC1CCOCC1 [ND-646]
growth of Mycobacterium tuberculosis (Mtb) in liquid culture (fluorescence signal intensity at 528 nm) [1, 6]: do not affect growth

CC(Oc1ccc(Oc2ncc(C(F)(F)F)cc2Cl)cc1)C(=O)O (stereo not drawn) [Haloxyfop]
inhibition of M. tuberculosis AccD5 [4]: cannot be inhibited
